This is an account of results in ChEMBL document CHEMBL1133900, “Improved synthesis and evaluation of 17-substituted aminoalkylgeldanamycin derivatives applicable to drug delivery systems” (Bioorg Med Chem Lett, 2001).

The IC50 is the concentration that gives 50% inhibition. Low readings indicate inhibition by little substance, high ones a need for much substance.

The subject of this assay is A2780. As to the kind of experiment: Compound was evaluated for antiproliferative activity against human ovarian carcinoma cell line A2780. Type of assay: functional, cell-based.

Consider `COC1=C2C[C@@H](C)C[C@H](OC)[C@H](O)[C@@H](C)/C=C(\C)[C@H](OC(N)=O)[C@@H](OC)/C=C\C=C(/C)C(=O)NC(=CC1=O)C2=O` [GELDANAMYCIN], for which the concentration for half-maximal inhibition (IC50) is 3.4 nM. Compound `CO[C@H]1/C=C\C=C(/C)C(=O)NC2=CC(=O)C(NCC(O)CN)=C(C[C@@H](C)C[C@H](OC)[C@H](O)[C@@H](C)/C=C(\C)[C@@H]1OC(N)=O)C2=O` (stereo partly drawn) had a half-inhibitory concentration (IC50) of 234 nM. `CO[C@H]1/C=C\C=C(/C)C(=O)NC2=CC(=O)C(NCCCN)=C(C[C@@H](C)C[C@H](OC)[C@H](O)[C@@H](C)/C=C(\C)[C@@H]1OC(N)=O)C2=O` registered a half-inhibitory concentration (IC50) of 136 nM.
